Assay results as given in publication PMC11801377, “A uniquely efficacious type of CFTR corrector with complementary mode of action” (Science Advances, 2024).

Target: T1, WT-CFTR (Homo sapiens, UniProt P13569)
T1 construct: host or cells: CFBE41o-
Test: Anti-CFTR immunoblotting (C-band) in CFBE41o- cells expressing WT-CFTR
Format: cell-based
Details: 24 h
Method: Cystic fibrosis bronchial epithelial (CFBE41o^−) cells stably expressing the human WT CFTR or F508del-CFTR mutant [generated in ([26])] were a gift from J. P. Clancy (University of Alabama, Birmingham) and cultured on fibronectin-coated plates (FNC coating mix; Enzo) in minimum essential medium with Earl’s salt (Thermo Fisher Scientific) containing 10% of heat-inactivated fetal bovine serum (FBS; Gibco), penicillin (100 U/ml), streptomycin ([…]) (Thermo Fisher Scientific), and puromycin (2 μg/ml; Sigma-Aldrich). […]
All cells were washed with ice-cold PBS and then lysed for 1 hour on ice with radioimmunoprecipitation assay (RIPA) buffer (Sigma-Aldrich, #R0278) containing 100 mM Na-fluoride, 4 mM Na-orthovanadate, 1 mM phenylmethylsulfonyl fluoride, 1 mM dithiothreitol, and benzonase (100 U/ml; Sigma-Aldrich). […] Samples were mixed with LDS sample buffer (Invitrogen), resolved by SDS-PAGE on 4 to 12% Novex bis-tris precast gels (Thermo Fisher Scientific), and analyzed by Western blotting using a wet transfer method (GenScript) and polyvinylidene difluoride membranes (Life Technologies). […] Membranes were treated with Western Lightning enhanced chemiluminescence substrate (PerkinElmer), and the chemiluminescence signal was recorded and quantified using a chemiluminescence reader and the corresponding software (Fusion FX 7, Evolution Edge, Vilber). […]

T1 sequence (P13569 whole entry): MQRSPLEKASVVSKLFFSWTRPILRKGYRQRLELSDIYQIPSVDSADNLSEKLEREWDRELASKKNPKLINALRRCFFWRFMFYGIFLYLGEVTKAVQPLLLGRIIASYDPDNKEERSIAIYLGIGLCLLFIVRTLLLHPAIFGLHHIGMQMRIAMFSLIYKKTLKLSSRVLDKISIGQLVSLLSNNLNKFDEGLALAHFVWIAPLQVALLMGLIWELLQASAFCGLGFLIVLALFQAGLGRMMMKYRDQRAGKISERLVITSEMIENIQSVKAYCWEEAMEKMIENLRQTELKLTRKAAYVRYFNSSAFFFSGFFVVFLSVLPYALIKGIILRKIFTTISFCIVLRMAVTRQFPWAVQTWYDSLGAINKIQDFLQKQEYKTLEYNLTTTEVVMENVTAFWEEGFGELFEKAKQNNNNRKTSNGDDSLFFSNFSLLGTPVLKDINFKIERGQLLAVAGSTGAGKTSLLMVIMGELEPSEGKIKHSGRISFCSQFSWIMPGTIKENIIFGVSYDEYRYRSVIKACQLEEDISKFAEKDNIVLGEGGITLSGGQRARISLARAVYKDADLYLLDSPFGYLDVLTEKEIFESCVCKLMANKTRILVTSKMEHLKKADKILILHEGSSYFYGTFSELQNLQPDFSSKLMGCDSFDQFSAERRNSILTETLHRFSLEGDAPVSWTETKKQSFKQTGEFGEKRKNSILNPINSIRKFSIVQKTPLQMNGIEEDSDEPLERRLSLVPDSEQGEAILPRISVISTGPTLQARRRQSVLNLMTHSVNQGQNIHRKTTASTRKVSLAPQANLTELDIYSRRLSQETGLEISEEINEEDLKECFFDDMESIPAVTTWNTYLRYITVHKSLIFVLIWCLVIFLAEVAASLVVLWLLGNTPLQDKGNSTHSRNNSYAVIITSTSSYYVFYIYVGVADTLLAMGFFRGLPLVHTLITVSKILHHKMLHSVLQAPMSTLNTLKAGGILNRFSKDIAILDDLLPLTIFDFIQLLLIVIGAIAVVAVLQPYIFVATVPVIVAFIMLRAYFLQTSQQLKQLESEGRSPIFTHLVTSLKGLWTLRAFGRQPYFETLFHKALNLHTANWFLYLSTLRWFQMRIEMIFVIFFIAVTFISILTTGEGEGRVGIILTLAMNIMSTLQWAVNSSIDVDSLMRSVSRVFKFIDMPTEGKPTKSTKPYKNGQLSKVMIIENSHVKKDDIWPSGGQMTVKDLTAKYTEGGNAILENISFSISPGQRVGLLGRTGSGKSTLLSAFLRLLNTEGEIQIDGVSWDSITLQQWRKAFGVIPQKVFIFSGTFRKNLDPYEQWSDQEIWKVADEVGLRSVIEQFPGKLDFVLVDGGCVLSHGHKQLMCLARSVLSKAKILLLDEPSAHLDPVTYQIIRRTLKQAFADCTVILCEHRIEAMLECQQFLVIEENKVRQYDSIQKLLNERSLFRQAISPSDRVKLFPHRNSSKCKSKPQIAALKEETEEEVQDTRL

increase in WT-CFTR C-band: ~ 2 fold
SMILES: COc1cc(CCNC(=O)C2CC(=O)N(C)C(CC(C)C)C(=O)N3CCCCC3C(=O)NC(Cc3ccccc3)COc3ccc4ncc(F)cc4c3C(=O)N2)on1 (stereo not shown) [IDOR-3]
